According to PubChem BioAssay (NCI):
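48-hour exposure; five concentrations; linearly interpolated endpoints. At the TGI there is no net growth.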

How the values were obtained:
Test in all cases: NCI tumour cell line growth inhibition, 48 h
786-0 renal = tested on: 786-0 renal
HCC-2998 colon = tested on: HCC-2998 colon
HS 578T breast = tested on: HS 578T breast
HT29 colon = tested on: HT29 colon
K-562 leukemia = tested on: K-562 leukemia
M14 melanoma = tested on: M14 melanoma
MALME-3M melanoma = tested on: MALME-3M melanoma
MCF7 breast = tested on: MCF7 breast
MDA-MB-231 breast = tested on: MDA-MB-231 breast
MDA-N = tested on: MDA-N
NCI-H522 lung = tested on: NCI-H522 lung
NCI/ADR-RES ovarian = tested on: NCI/ADR-RES ovarian
OVCAR-3 ovarian = tested on: OVCAR-3 ovarian
OVCAR-8 ovarian = tested on: OVCAR-8 ovarian
PC-3 prostate = tested on: PC-3 prostate
SF-268 CNS = tested on: SF-268 CNS
SK-MEL-28 melanoma = tested on: SK-MEL-28 melanoma
SK-OV-3 ovarian = tested on: SK-OV-3 ovarian
T-47D breast = tested on: T-47D breast
U251 CNS = tested on: U251 CNS

Row | SMILES | TGI (786-0 renal) | TGI (HCC-2998 colon) | TGI (HS 578T breast) | TGI (HT29 colon) | TGI (K-562 leukemia) | TGI (M14 melanoma) | TGI (MALME-3M melanoma) | TGI (MCF7 breast) | TGI (MDA-MB-231 breast) | TGI (MDA-N) | TGI (NCI-H522 lung) | TGI (NCI/ADR-RES ovarian) | TGI (OVCAR-3 ovarian) | TGI (OVCAR-8 ovarian) | TGI (PC-3 prostate) | TGI (SF-268 CNS) | TGI (SK-MEL-28 melanoma) | TGI (SK-OV-3 ovarian) | TGI (T-47D breast) | TGI (U251 CNS)
1 | CC1C/C(=C\c2ccc(OC(=O)C(C)(C)C)cc2)C(=O)/C(=C/c2ccc(OC(=O)C(C)(C)C)cc2)C1 (centres undefined) | > 100 µM | > 100 µM | > 100 µM | > 100 µM | > 100 µM | > 100 µM | > 100 µM | > 100 µM | > 100 µM | > 100 µM | 15.6 µM | > 100 µM | > 100 µM | 86.6 µM | > 100 µM | > 100 µM | > 100 µM | > 100 µM | > 100 µM | > 100 µM
2 | Cc1cccc2c1C(=O)[C@](C)([C@]1(C)Nc3cccc(C)c3C1=O)N2 | > 100 µM | > 100 µM | 67.8 µM | > 100 µM | > 100 µM | > 100 µM | > 100 µM | > 100 µM | > 100 µM | 63 µM | 80.9 µM | > 100 µM | 83.3 µM | 72.8 µM | > 100 µM | 55.8 µM | > 100 µM | 76.6 µM | 87.9 µM | > 100 µM
3 | CCOC(=O)CCC(NC(=O)c1ccc(Oc2nc3ccccc3nc2-c2ccccc2)cc1)C(=O)OCC (centres undefined) | > 28.7 µM | > 100 µM | 27.3 µM | 10.7 µM | > 100 µM | > 100 µM | 33 µM | > 100 µM | 65.9 µM | > 85.4 µM | 40.2 µM | 27.7 µM | > 64.8 µM | 16 µM | > 100 µM | 28.2 µM | > 100 µM | > 67.6 µM | > 72.1 µM | > 94 µM
4 | CCCC[C@H]1[C@@H](OCOc2ccccc2)COC(=O)N1[C@H](C)c1ccccc1 |  | 35.8 µM | 52.8 µM | > 59 µM | > 100 µM | 31.2 µM | 33.5 µM | 26.7 µM | 37.3 µM | 32.4 µM | 29.2 µM | > 66.1 µM | 27.8 µM | > 100 µM | 23.4 µM | 38.7 µM | 71.1 µM | > 56.1 µM | > 40.4 µM | 42.3 µM
5 | COc1ccc(N2C(=O)[C@H]3[C@H]4CC(C(C)(C)C)CC[C@H]4c4c(n(C)c5ccccc45)[C@H]3C2=O)cc1 (some centres undefined) | > 100 µM | > 56.2 µM | > 86 µM | > 100 µM | > 100 µM | > 100 µM | > 100 µM | > 46.4 µM | > 100 µM | > 100 µM | > 82.4 µM | > 100 µM | > 100 µM | > 100 µM | > 100 µM | > 100 µM | > 100 µM | > 100 µM | > 100 µM | > 56.2 µM
6 | CC1CN=C(Nc2ccccc2)S1 (centres undefined) | > 100 µM | > 100 µM | > 100 µM | > 100 µM | > 100 µM | > 100 µM | > 100 µM | > 100 µM | > 100 µM | > 100 µM | > 100 µM | > 100 µM | > 100 µM | > 100 µM | > 100 µM | > 100 µM | > 100 µM | > 100 µM | > 100 µM | > 100 µM
7 | Cc1cc(C)nc(NS(=O)(=O)c2ccc(NNc3c4ccccc4nc4c(C(=O)Nc5ccc(S(N)(=O)=O)cc5)cccc34)cc2)n1 | > 100 µM | 84.3 µM | > 100 µM | > 100 µM | > 100 µM | > 100 µM | > 100 µM | > 100 µM | 89 µM | > 100 µM | 85.8 µM | > 100 µM | > 100 µM | > 100 µM | 32.9 µM | > 100 µM | 92.3 µM | > 100 µM | > 100 µM | 70.3 µM
8 | O=[N+]([O-])c1ccc(N=Nc2c(O)ccc3ccccc23)c([N+](=O)[O-])c1 | > 100 µM | > 100 µM | > 100 µM | > 100 µM | > 71.4 µM | > 100 µM | > 100 µM | > 100 µM | > 100 µM | > 100 µM | > 100 µM | > 100 µM | > 100 µM | > 100 µM | > 100 µM | > 100 µM | > 100 µM | > 100 µM | > 100 µM | > 100 µM
9 | CC[C@@H]1C(=O)OC[C@@H]1Cc1cncn1C | > 100 µM | > 100 µM | > 100 µM | > 100 µM | > 100 µM | > 100 µM | > 100 µM | > 100 µM | > 100 µM | > 100 µM | > 100 µM | > 100 µM | > 100 µM | > 100 µM | > 100 µM | > 100 µM | > 100 µM | > 100 µM | > 100 µM | > 100 µM
10 | CC1(C)CCc2c(c(N=Nc3ccc(S(N)(=O)=O)cc3)c3ccccc3c2O)O1 | 23.2 µM | 15.9 µM | > 100 µM | 38.1 µM | > 100 µM | 38.2 µM | 15.8 µM | 33.1 µM | 8.77 µM | 9.72 µM | 33.7 µM | 59.9 µM | 32.1 µM | 28.7 µM | 36.1 µM | 84.9 µM | 72.9 µM | 16.2 µM | 49.3 µM | 20.9 µM
11 | CN1C/C(=C\c2cccs2)C2=NN(C)C(c3cccs3)C2C1 (centres undefined) | > 100 µM | > 100 µM | > 100 µM | > 100 µM | > 100 µM | > 100 µM | > 100 µM | > 100 µM | > 100 µM | > 100 µM | > 100 µM | > 100 µM | > 100 µM | > 100 µM | > 100 µM | > 100 µM | > 100 µM | > 100 µM | > 100 µM | > 100 µM
12 | Oc1cc2c3c(c1)CCCN3CCC2 | > 10 µM | > 10 µM | > 10 µM | > 10 µM | > 10 µM | > 10 µM | > 10 µM | > 10 µM | > 10 µM | > 10 µM | > 10 µM | > 10 µM | > 10 µM | > 10 µM | > 10 µM | > 10 µM | > 10 µM | > 10 µM | > 10 µM | > 10 µM
